d = 2'-deoxy (DNA); r = 2'-OH (RNA)
Test system: A549 cells-derived tumors
Experiment: Next-generation sequencing (NGS) of si-NT- and si-hSMAC-A-treated tumors
Format: in vivo, human
Protocol: Libraries were prepared by the INCPM-RNA-seq unit (Weizmann Institute, Israel). Briefly, polyA fraction (mRNA) was purified from 500 ng of total RNA, isolated as above, followed by fragmentation and generation of double stranded cDNA. End repair, a base addition, adapter ligation and PCR amplification steps were performed according to established methods. Libraries were evaluated by Qubit and TapeStation. Sequencing libraries were constructed with barcodes to allow multiplexing of 20 samples in one lane. Between 22 and 26 million reads single-end 60-bp reads were sequenced per sample on Illumina HiSeq 2500 V4 instrument.
Bioinformatics analyses were carried out at the Bioinformatics Core Facility at the National Institute for Biotechnology in the Negev, Ben-Gurion University. Raw sequence reads were assessed for quality using FASTQC and further trimmed for removal of remaining adaptors and low quality bases using Trimmomatic. The trimmed reads from each sample were separately aligned to the human and mouse genomes (GRCh38 and GRCm38.75, respectively) using STAR v2.3.0 with default settings. An average of 23.7±0.8 million reads per sample was obtained. Of these, an average of 13, 2.6, 7.8 and 0.3 million reads were mapped to human only, mouse only, both human and mouse, and none of them, respectively. After rejection of multi-mapped reads, a total of 11.5±2.5 human-specific, uniquely mapped reads, and 2.3±1.7 mouse-specific, uniquely mapped reads were subjected for further analysis. The number of aligned reads per gene per sample were counted using HTSeq count with “intersection-nonempty” (to handle reads that overlap with more than one gene) and “no stranded” as parameters. The other parameters were set to their default. Normalization and statistical analysis for differential expression were carried out using DESeq2 v1.6.3. Fold change values were converted to linear scale, with a minus sign indicating down-regulation.
Differentially expressed genes were defined as those having a p-value<0.05, and linear fold change>1.5 and <−1.5. Functional analysis was performed using the Gene Ontology system, DAVID and Expander software tools.
NGS was used to investigate changes in patterns of gene expression in si-NT-TTs and si-hSMAC-A-TTs (FIG. 10, and Tables 3-5). […] As si-hSMAC is human-specific, any effect on mouse gene expression must be mediated by the human tumor cells.
The major functional groups were changes were seen are presented below.

[1] = vs si-NT-TTs, ENDOPLASMIC AND GOLGI LUMENS
[2] = vs si-NT-TTs, ENDOPLASMIC AND GOLGI LUMENS / METABOLISM RELATED ENZYMES
[3] = vs si-NT-TTs, ER AND MITOCHONDRIA
[4] = vs si-NT-TTs, EXTRACELLULAR MATRIX

si-hSMAC-A: siRNA to human SMAC/Diablo; sense 5′AAGCGGUGUUUCUCAGAAUUGtt3′ (SEQ ID NO:20), antisense 5′AACAAUUCUGAGAAACCCGCtt3′ (SEQ ID NO:21) (sense AAGCGGUGUUUCUCAGAAUUGTT; antisense AACAAUUCUGAGAAACCCGCTT; sense: sugars from the 5' end r21 d2, backbone not given here; antisense: sugars from the 5' end r20 d2, backbone not given here)
Fold change, ACKR3-atypical chemokine receptor 3 gene expression (NGS, si-hSMAC-A- vs si-NT-treated A549 cells-derived tumors, gene ACKR3): −2.2 | Fold change, C5-complement component 5 gene expression (NGS, si-hSMAC-A- vs si-NT-treated A549 cells-derived tumors, gene C5): −1.7 | Fold change, C5AR1 (CD88)-complement component 5a receptor 1 gene expression (NGS, si-hSMAC-A- vs si-NT-treated A549 cells-derived tumors, gene C5AR1): −1.7 | Fold change, CCL24-chemokine (C-C motif) ligand 24 gene expression (NGS, si-hSMAC-A- vs si-NT-treated A549 cells-derived tumors, gene CCL24): 1.9 | Fold change, CCL28-chemokine (C-C motif) ligand 28 gene expression (NGS, si-hSMAC-A- vs si-NT-treated A549 cells-derived tumors, gene CCL28): 1.9 | Fold change, CD274-(PD-L1) molecule gene expression (NGS, si-hSMAC-A- vs si-NT-treated A549 cells-derived tumors, gene CD274): −1.9 | Fold change, CREB3L3-CAMP responsive element binding protein 3-like 3 gene expression (NGS, si-hSMAC-A- vs si-NT-treated A549 cells-derived tumors, gene CREB3L3): 2.0 | Fold change, CX3CL1-chemokine (C-X3-C motif) ligand 1 gene expression (NGS, si-hSMAC-A- vs si-NT-treated A549 cells-derived tumors, gene CX3CL1): 1.6 | Fold change, GAS6-growth arrest-specific 6 gene expression (NGS, si-hSMAC-A- vs si-NT-treated A549 cells-derived tumors, gene GAS6): −1.7 | Fold change, IL1R1-interleukin 1 receptor, type I gene expression (NGS, si-hSMAC-A- vs si-NT-treated A549 cells-derived tumors, gene IL1R1): −1.6 | Fold change, IL6-interleukin 6 gene expression (NGS, si-hSMAC-A- vs si-NT-treated A549 cells-derived tumors, gene IL6): −2.5 | Fold change, IL18BP-interleukin 18 binding protein gene expression (NGS, si-hSMAC-A- vs si-NT-treated A549 cells-derived tumors, gene IL18BP): −1.6 | Fold change, IL27RA-interleukin 27 receptor, alpha gene expression (NGS, si-hSMAC-A- vs si-NT-treated A549 cells-derived tumors, gene IL27RA): −1.6 | Fold change, IRF6-interferon regulatory factor 6 gene expression (NGS, si-hSMAC-A- vs si-NT-treated A549 cells-derived tumors, gene IRF6): 1.6 | Fold change, LBP-lipopolysaccharide binding protein gene expression (NGS, si-hSMAC-A- vs si-NT-treated A549 cells-derived tumors, gene LBP): −2.1 | Fold change, MRC2 (ENDO180)-mannose receptor, C type 2 gene expression (NGS, si-hSMAC-A- vs si-NT-treated A549 cells-derived tumors, gene MRC2): −1.7 | Fold change, OSMR-oncostatin M receptor gene expression (NGS, si-hSMAC-A- vs si-NT-treated A549 cells-derived tumors, gene OSMR): −1.7 | Fold change, PROC-protein C gene expression (NGS, si-hSMAC-A- vs si-NT-treated A549 cells-derived tumors, gene PROC): 1.8 | Fold change, PTGS2 (Cox-2)-prostaglandin-endoperoxide synthase 2 gene expression (NGS, si-hSMAC-A- vs si-NT-treated A549 cells-derived tumors, gene PTGS2): −1.8 | Fold change, TLR3-toll-like receptor 3 gene expression (NGS, si-hSMAC-A- vs si-NT-treated A549 cells-derived tumors, gene TLR3): −1.7 | Fold change, TNFAIP6 (TSG6) gene expression (NGS, si-hSMAC-A- vs si-NT-treated A549 cells-derived tumors, gene TNFAIP6): −1.6 | Fold change, TNFSF14 (LIGHT) gene expression (NGS, si-hSMAC-A- vs si-NT-treated A549 cells-derived tumors, gene TNFSF14): −1.8 | expression of genes associated with inflammation and the tumor microenvironment (in vivo): reduction | number of human genes down-regulated (in vivo): ~242 | number of human genes up-regulated (in vivo): about 186 | Fold change ACKR3 (vs si-NT-TTs, CELL MEMBRANE): −2.2 fold | Fold change BAMBI (vs si-NT-TTs, CELL MEMBRANE): 1.7 fold | Fold change C5AR1 (CD88) (vs si-NT-TTs, CELL MEMBRANE): −1.7 fold | Fold change CDH3 (vs si-NT-TTs, CELL MEMBRANE): 1.7 fold | Fold change CLDN4 (vs si-NT-TTs, CELL MEMBRANE): 2.4 fold | Fold change CLMP (vs si-NT-TTs, CELL MEMBRANE): −1.7 fold | Fold change CNTNAP2 (vs si-NT-TTs, CELL MEMBRANE): −1.8 fold | Fold change DSC2 (vs si-NT-TTs, CELL MEMBRANE): 1.6 fold | Fold change EMP1 (vs si-NT-TTs, CELL MEMBRANE): 1.8 fold | Fold change ITGA1 (CD49a) (vs si-NT-TTs, CELL MEMBRANE): −1.9 fold | Fold change TNS1 (vs si-NT-TTs, CELL MEMBRANE): −1.6 fold | Fold change ABCC6 [1]: −2.3 fold | Fold change AGR3 [1]: 4.1 fold | Fold change AHCYL2 [1]: −1.7 fold | Fold change BACE1 [1]: −1.5 fold | Fold change CEMIP [1]: −3.6 fold | Fold change CHERP [1]: −1.7 fold | Fold change CLGN [1]: −1.9 fold | Fold change COX10-AS1 [1]: −2.1 fold | Fold change CYP26B1 [1]: −1.8 fold | Fold change FAM20A [1]: −4.4 fold | Fold change FOXRED2 [1]: −1.5 fold | Fold change ITPR1 [1]: −1.7 fold | Fold change NCK2 [1]: 2.0 fold | Fold change P4HA3 [1]: −1.9 fold | Fold change PCSK5 [1]: −2.3 fold | Fold change PPAP2B [1]: −1.8 fold | Fold change PTGS2 (COX-2) [1]: −1.8 fold | Fold change RIC3 [1]: −2.7 fold | Fold change RYR1 [1]: 2.5 fold | Fold change SEC61G [1]: 1.8 fold | Fold change TM4SF20 [1]: −1.7 fold | Fold change TMEM147-AS [1]: −1.7 fold | Fold change UGT1A7 [1]: −3.5 fold | Fold change UGT1A9 [1]: −17.2 fold | Fold change ACAD10 [2]: −1.7 fold | Fold change H6PD (GDH) [2]: −1.6 fold | Fold change KLK6 [3]: 25.83 fold | Fold change SGK1 [3]: −1.7 fold | Fold change CD9 (TSPAN29) (vs si-NT-TTs, EXOSOMES): 1.5 fold | Fold change CD63 (TSPAN30) (vs si-NT-TTs, EXOSOMES): 3.5 fold | Fold change CD274 (PD-L1) (vs si-NT-TTs, EXOSOMES): −1.9 fold | Fold change CEACAM5 (CD66e) (vs si-NT-TTs, EXOSOMES): 2.2 fold | Fold change EPCAM (vs si-NT-TTs, EXOSOMES): 2.7 fold | Fold change FSTL1 (vs si-NT-TTs, EXOSOMES): −1.8 fold | Fold change GAS6 (vs si-NT-TTs, EXOSOMES): −1.7 fold | Fold change GP1BA (vs si-NT-TTs, EXOSOMES): −1.7 fold | Fold change HSPG2 (Perlecan) (vs si-NT-TTs, EXOSOMES): −1.7 fold | Fold change IGFBP7 (vs si-NT-TTs, EXOSOMES): −1.8 fold | Fold change NID2 (vs si-NT-TTs, EXOSOMES): −2.1 fold | Fold change RAB17 (vs si-NT-TTs, EXOSOMES): 1.9 fold | Fold change TSPAN8 (vs si-NT-TTs, EXOSOMES): 1.6 fold | Fold change TSPAN13 (vs si-NT-TTs, EXOSOMES): 1.8 fold | Fold change VAMP8 (vs si-NT-TTs, EXOSOMES): 1.9 fold | Fold change CANT1 (vs si-NT-TTs, EXOSOMES / METABOLISM RELATED ENZYMES): 1.5 fold | Fold change ABI3BP (TARSH) [4]: −2.4 fold | Fold change ADAMTS9 [4]: −2.2 fold | Fold change BMP2 [4]: −1.8 fold | Fold change BMPER [4]: −1.7 fold | Fold change CCBE1 [4]: −2.7 fold | Fold change COL4A1 [4]: −2.2 fold | Fold change COL4A2 [4]: −1.8 fold | Fold change COL5A1 [4]: −1.5 fold | Fold change COL12A1 [4]: −1.5 fold | Fold change COL17A1 (BP180) [4]: 2.1 fold | Fold change EDIL3 (Del1) [4]: −2.5 fold

From US11976280B2, “SMAC/Diablo inhibitors useful for treating cancer” (THE NATIONAL INSTITUTE FOR BIOTECHNOLOGY IN THE NEGEV LTD., priority 2017, dated 2024)
